# Assays:
# Clostridium perfringens = assay: Antimicrobial activity against Clostridium perfringens after 48 hrs by agar dilution method; format: functional
# Clostridioides difficile = assay: Antimicrobial activity against Clostridium difficile after 48 hrs by agar dilution method; format: functional
smiles,measurement,setting,value
CN[C@H](CC(C)C)C(=O)N[C@H]1C(=O)N[C@@H](CC(N)=O)C(=O)N[C@H]2C(=O)N[C@H]3C(=O)N[C@H](C(=O)N[C@H](C(=O)O)c4cc(O)cc(O)c4-c4cc3ccc4O)[C@H](O)c3ccc(c(Cl)c3)Oc3cc2cc(c3O[C@@H]2O[C@H](CO)[C@@H](O)[C@H](O)[C@H]2O[C@H]2C[C@](C)(N)[C@H](O)[C@H](C)O2)Oc2ccc(cc2Cl)[C@H]1O [VANCOMYCIN],MIC50,Clostridium perfringens,0.5 µg/mL
same,MIC90,Clostridium perfringens,0.5 µg/mL
same,MIC50,Clostridioides difficile,0.5 µg/mL
same,MIC90,Clostridioides difficile,2 µg/mL
